Results as given in the supplement of paper PMC13207355.
± gives the standard deviation of the averaged measurements.

What was measured:
Settings in all cases: exposure time: 72 h
E13 [1] = patient-derived glioblastoma stem cells of classical subtype; assay: surviving fraction (nuclei count normalised to DMSO); higher = more cells surviving (less toxic)
E21 [2] = patient-derived glioblastoma stem cells of mesenchymal subtype; assay: as above
E28 [3] = patient-derived glioblastoma stem cells of classical subtype; assay: as above
E31 [4] = patient-derived glioblastoma stem cells of proneural subtype; assay: as above
E34 [5] = patient-derived glioblastoma stem cells of proneural subtype; assay: as above
E57 [6] = patient-derived glioblastoma stem cells of mesenchymal subtype; assay: as above
FT3469 [7] = normal neural stem cell line; assay: as above
E13 [8] = assay: phenotypic distance (Euclidean, principal components) from DMSO controls (arbitrary units); higher = stronger morphological change
E21 [9] = assay: as above
E28 [10] = assay: as above
E31 [11] = assay: as above
E34 [12] = assay: as above
E57 [13] = assay: as above
FT3469 [14] = assay: as above
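Wherever phenotypic distance (Euclidean, principal components) from DMSO controls is given: cell Painting imaging in 384-well plates, CellProfiler features reduced to at least 20 principal components, Euclidean distance versus same-plate DMSO vehicle wells (0.1% v/v), median over six images per well.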
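Wherever surviving fraction (nuclei count normalised to DMSO) is given: nuclei counted by high-content imaging of Hoechst-stained cells in laminin-coated 384-well plates, relative to 0.1% DMSO vehicle wells, with staurosporine as cell-death control.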

CC(C)(C)C1CCN(C(=O)n2ncc(C(O)(c3ccccc3)c3ccccc3)n2)CC1 [ML211]
Settings	phenotypic distance	surviving fraction
E13 [1], 4.1 nM	–	0.909 ± 0.045
E13 [1], 12.3 nM	–	0.883 ± 0.028
E13 [1], 37 nM	–	0.918 ± 0.094
E13 [1], 111.1 nM	–	0.985 ± 0.028
E13 [1], 333.3 nM	–	0.984 ± 0.11
E13 [1], 1000 nM	–	0.975 ± 0.066
E13 [1], 3000 nM	–	0.916 ± 0.014
E13 [8], 4.1 nM	0.844 ± 0.46	–
E13 [8], 12.3 nM	0.731 ± 0.1	–
E13 [8], 37 nM	0.757 ± 0.42	–
E13 [8], 111.1 nM	0.461 ± 0.1	–
E13 [8], 333.3 nM	0.703 ± 0.23	–
E13 [8], 1000 nM	0.699 ± 0.15	–
E13 [8], 3000 nM	0.911 ± 0.42	–
E21 [2], 4.1 nM	–	0.93 ± 0.12
E21 [2], 12.3 nM	–	0.888 ± 0.034
E21 [2], 37 nM	–	0.946 ± 0.084
E21 [2], 111.1 nM	–	0.8973 ± 0.0015
E21 [2], 333.3 nM	–	0.973 ± 0.044
E21 [2], 1000 nM	–	0.9031 ± 0.0052
E21 [2], 3000 nM	–	0.889 ± 0.058
E21 [9], 4.1 nM	0.863 ± 0.43	–
E21 [9], 12.3 nM	0.923 ± 0.047	–
E21 [9], 37 nM	0.671 ± 0.095	–
E21 [9], 111.1 nM	0.652 ± 0.073	–
E21 [9], 333.3 nM	0.683 ± 0.082	–
E21 [9], 1000 nM	0.885 ± 0.11	–
E21 [9], 3000 nM	0.961 ± 0.043	–
E28 [3], 4.1 nM	–	1.09 ± 0.046
E28 [3], 12.3 nM	–	1 ± 0.026
E28 [3], 37 nM	–	1 ± 0.093
E28 [3], 111.1 nM	–	1 ± 0.021
E28 [3], 333.3 nM	–	0.987 ± 0.082
E28 [3], 1000 nM	–	0.9874 ± 0.0069
E28 [3], 3000 nM	–	0.883 ± 0.12
E28 [10], 4.1 nM	0.935 ± 0.43	–
E28 [10], 12.3 nM	0.886 ± 0.47	–
E28 [10], 37 nM	0.733 ± 0.039	–
E28 [10], 111.1 nM	0.678 ± 0.38	–
E28 [10], 333.3 nM	0.596 ± 0.17	–
E28 [10], 1000 nM	0.668 ± 0.1	–
E28 [10], 3000 nM	1.42 ± 0.16	–
E31 [4], 4.1 nM	–	0.9689 ± 0.0042
E31 [4], 12.3 nM	–	0.979 ± 0.061
E31 [4], 37 nM	–	0.993 ± 0.022
E31 [4], 111.1 nM	–	0.928 ± 0.046
E31 [4], 333.3 nM	–	1.04 ± 0.13
E31 [4], 1000 nM	–	0.973 ± 0.047
E31 [4], 3000 nM	–	0.823 ± 0.037
E31 [11], 4.1 nM	0.563 ± 0.26	–
E31 [11], 12.3 nM	0.567 ± 0.34	–
E31 [11], 37 nM	0.644 ± 0.016	–
E31 [11], 111.1 nM	0.641 ± 0.47	–
E31 [11], 333.3 nM	1.05 ± 0.096	–
E31 [11], 1000 nM	0.871 ± 0.41	–
E31 [11], 3000 nM	1.12 ± 0.029	–
E34 [5], 4.1 nM	–	0.956 ± 0.021
E34 [5], 12.3 nM	–	0.941 ± 0.11
E34 [5], 37 nM	–	0.95 ± 0.072
E34 [5], 111.1 nM	–	0.868 ± 0.04
E34 [5], 333.3 nM	–	0.976 ± 0.2
E34 [5], 1000 nM	–	0.965 ± 0.17
E34 [5], 3000 nM	–	0.8932 ± 0.0064
E34 [12], 4.1 nM	1.21 ± 0.68	–
E34 [12], 12.3 nM	0.912 ± 0.38	–
E34 [12], 37 nM	1.05 ± 0.22	–
E34 [12], 111.1 nM	0.782 ± 0.31	–
E34 [12], 333.3 nM	0.763 ± 0.082	–
E34 [12], 1000 nM	0.734 ± 0.23	–
E34 [12], 3000 nM	0.728 ± 0.27	–
E57 [6], 4.1 nM	–	0.995 ± 0.057
E57 [6], 12.3 nM	–	1 ± 0.074
E57 [6], 37 nM	–	0.9744 ± 0.0049
E57 [6], 111.1 nM	–	1.02 ± 0.036
E57 [6], 333.3 nM	–	0.964 ± 0.046
E57 [6], 1000 nM	–	0.974 ± 0.034
E57 [6], 3000 nM	–	0.894 ± 0.039
E57 [13], 4.1 nM	0.588 ± 0.28	–
E57 [13], 12.3 nM	0.447 ± 0.17	–
E57 [13], 37 nM	0.552 ± 0.13	–
E57 [13], 111.1 nM	0.483 ± 0.017	–
E57 [13], 333.3 nM	0.642 ± 0.092	–
E57 [13], 1000 nM	0.6 ± 0.04	–
E57 [13], 3000 nM	0.835 ± 0.43	–
FT3469 [7], 4.1 nM	–	0.879 ± 0.031
FT3469 [7], 12.3 nM	–	1.008 ± 0.0099
FT3469 [7], 37 nM	–	0.989 ± 0.034
FT3469 [7], 111.1 nM	–	0.934 ± 0.06
FT3469 [7], 333.3 nM	–	0.885 ± 0.032
FT3469 [7], 1000 nM	–	0.816 ± 0.046
FT3469 [7], 3000 nM	–	0.817 ± 0.058
FT3469 [14], 4.1 nM	1.1 ± 0.63	–
FT3469 [14], 12.3 nM	0.699 ± 0.37	–
FT3469 [14], 37 nM	0.637 ± 0.11	–
FT3469 [14], 111.1 nM	0.748 ± 0.2	–
FT3469 [14], 333.3 nM	0.841 ± 0.04	–
FT3469 [14], 1000 nM	1.25 ± 0.4	–
FT3469 [14], 3000 nM	1.74 ± 0.35	–
